# Measurements taken from ChEMBL document CHEMBL1125129, “Design of potent and selective linear antagonists of vasopressor (V1-receptor) responses to vasopressin” (J Med Chem, 1990).
# Legend:
# Vasopressin V2 receptor = Vasopressin V2 receptor (Rattus norvegicus, UniProt Q00788); assay: Vasopressin V2 receptor antagonistic activity in vivo in anesthetized rats; type: functional, organism-based; conditions: read-out: pA2 (converted)
# Vasopressin V1 receptor = Vasopressin V1 receptor (Rattus norvegicus, UniProt P48974+P30560); assay: pA2 value was determined for Vasopressin V1 receptor antagonistic activity in vivo in anesthetized rats; type: functional, organism-based
# [1] = target: Vasopressin V2 receptor (Rattus norvegicus) (UniProt Q00788); assay: Selectivity ratio of antidiuretic Vasopressin V2 receptor ED /[…] receptor ED; conditions: Urine
# [2] = target: Vasopressin V1 receptor (Rattus norvegicus) (UniProt P48974+P30560); assay: Effective dose was determined for Vasopressin V1 receptor antagonistic activity in vivo in anesthetized rats; type: functional, organism-based
# [3] = target: Vasopressin V2 receptor (Rattus norvegicus) (UniProt Q00788); assay: Effective dose was determined for Vasopressin V2 receptor antagonistic activity in vivo in anesthetized rats; type: functional, organism-based
# Chain of Vasopressin V2 receptor (Rattus norvegicus) (Q00788 whole entry): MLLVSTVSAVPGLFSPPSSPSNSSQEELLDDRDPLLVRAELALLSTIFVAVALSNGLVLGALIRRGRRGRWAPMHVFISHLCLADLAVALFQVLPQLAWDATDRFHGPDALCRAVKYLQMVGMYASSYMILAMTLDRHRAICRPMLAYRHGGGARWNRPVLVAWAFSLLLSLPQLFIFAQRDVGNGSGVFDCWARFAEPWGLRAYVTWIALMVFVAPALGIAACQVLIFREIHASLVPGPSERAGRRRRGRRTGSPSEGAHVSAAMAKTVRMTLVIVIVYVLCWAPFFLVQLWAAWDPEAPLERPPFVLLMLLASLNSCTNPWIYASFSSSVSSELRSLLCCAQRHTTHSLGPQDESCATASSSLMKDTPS
# Chain of Vasopressin V2 receptor (Q00788 whole entry): as above
# Chain of Vasopressin V1 receptor (Rattus norvegicus) (P30560 whole entry, looked up): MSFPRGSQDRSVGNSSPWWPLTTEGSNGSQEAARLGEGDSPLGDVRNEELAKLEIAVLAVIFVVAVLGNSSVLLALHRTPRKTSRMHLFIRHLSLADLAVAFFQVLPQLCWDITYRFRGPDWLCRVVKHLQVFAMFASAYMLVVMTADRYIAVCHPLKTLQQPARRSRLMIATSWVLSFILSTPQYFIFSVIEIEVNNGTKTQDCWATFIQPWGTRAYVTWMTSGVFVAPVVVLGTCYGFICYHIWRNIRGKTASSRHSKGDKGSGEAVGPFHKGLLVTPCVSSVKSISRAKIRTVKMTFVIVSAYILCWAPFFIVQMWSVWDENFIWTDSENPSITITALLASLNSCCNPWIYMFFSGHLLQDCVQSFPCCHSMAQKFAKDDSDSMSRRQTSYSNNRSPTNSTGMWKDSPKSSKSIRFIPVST
# Chain of Vasopressin V1 receptor (Rattus norvegicus) (P48974 whole entry, looked up): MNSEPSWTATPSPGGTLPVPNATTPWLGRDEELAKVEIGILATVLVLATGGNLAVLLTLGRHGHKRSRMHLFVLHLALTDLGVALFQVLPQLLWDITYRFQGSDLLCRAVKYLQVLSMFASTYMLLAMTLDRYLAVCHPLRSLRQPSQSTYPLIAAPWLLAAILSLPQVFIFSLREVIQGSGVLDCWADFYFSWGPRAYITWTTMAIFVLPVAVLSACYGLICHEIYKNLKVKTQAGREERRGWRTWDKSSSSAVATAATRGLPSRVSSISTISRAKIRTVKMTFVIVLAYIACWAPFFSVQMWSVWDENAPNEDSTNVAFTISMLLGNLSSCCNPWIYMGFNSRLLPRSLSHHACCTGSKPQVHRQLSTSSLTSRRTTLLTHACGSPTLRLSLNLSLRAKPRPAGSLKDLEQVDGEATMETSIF
SMILES,Kb (Vasopressin V2 receptor) [nM],pA2 (Vasopressin V1 receptor),Ratio [1],Effective dose [2] [nM/kg],Effective dose [3] [nM/kg]
CCOc1ccc(C[C@@H](NC(=O)CC(C)(C)C)C(=O)N[C@@H](Cc2ccccc2)C(=O)N[C@H](C(=O)N[C@@H](CC(N)=O)C(=O)NCCCC(=O)N2CCC[C@H]2C(=O)N[C@@H](CCCN=C(N)N)C(=O)N[C@@H](CCCN=C(N)N)C(N)=O)C(C)C)cc1,12.3,7.99,,,
CCOc1ccc(C[C@@H](NC(=O)Cc2ccccc2)C(=O)N[C@@H](Cc2ccccc2)C(=O)N[C@H](C(=O)N[C@@H](CC(N)=O)C(=O)N[C@@H](CCCCN)C(=O)N2CCC[C@@H]2C(=O)N[C@@H](CCCN=C(N)N)C(N)=O)C(C)C)cc1,,,26,0.11,2.9
CCOc1ccc(C[C@@H](NC(=O)CC(C)(C)C)C(=O)N[C@@H](Cc2ccccc2)C(=O)N[C@@H](CCC(N)=O)C(=O)N[C@@H](CC(N)=O)C(=O)N[C@@H](CCCCN)C(=O)N2CCC[C@@H]2C(=O)N[C@@H](CCCN=C(N)N)C(N)=O)cc1,,,> 1500,0.27,> 410
CCOc1ccc(C[C@@H](NC(=O)Cc2ccccc2)C(=O)N[C@@H](Cc2ccccc2)C(=O)N[C@@H](CCC(N)=O)C(=O)N[C@@H](CC(N)=O)C(=O)N[C@@H](CCCCN)C(=O)N2CCC[C@@H]2C(=O)N[C@@H](CCCN=C(N)N)C(N)=O)cc1,,,570,0.07,40
CCOc1ccc(C[C@@H](NC(=O)CC23CC4CC(CC(C4)C2)C3)C(=O)N[C@@H](Cc2ccccc2)C(=O)N[C@H](C(=O)N[C@@H](CC(N)=O)C(=O)N[C@@H](CCCCN)C(=O)N2CCC[C@H]2C(=O)N[C@@H](CCCN=C(N)N)C(=O)N[C@@H](CCCN=C(N)N)C(N)=O)C(C)C)cc1,20,8.14,,,
CCOc1ccc(C[C@@H](NC(=O)CC(C)(C)C)C(=O)N[C@@H](Cc2ccccc2)C(=O)N[C@H](C(=O)N[C@@H](CC(N)=O)C(=O)N[C@@H](CCCCN)C(=O)N2CCC[C@@H]2C(=O)N[C@@H](CCCN=C(N)N)C(N)=O)C(C)C)cc1,,,41,0.17,> 7
NCCCC[C@H](NC(=O)[C@H](CC(N)=O)NC(=O)[C@H](CCC(N)=O)NC(=O)[C@H](Cc1ccccc1)NC(=O)[C@@H](Cc1ccc(O)cc1)NC(=O)Cc1ccccc1)C(=O)N1CCC[C@H]1C(=O)N[C@@H](CCCN=C(N)N)C(N)=O,63.1,8.91,,,
CCOc1ccc(C[C@@H](NC(=O)CC23CC4CC(CC(C4)C2)C3)C(=O)N[C@@H](Cc2ccccc2)C(=O)N[C@H](C(=O)N[C@@H](CC(N)=O)C(=O)N[C@@H](CCCCN)C(=O)N2CCC[C@@H]2C(=O)N[C@@H](CCCN=C(N)N)C(N)=O)C(C)C)cc1,,,1.7,0.66,1.1
CCOc1ccc(C[C@@H](NC(=O)CC23C[C@H]4C[C@@H](C2)C[C@@H](C3)C4)C(=O)N[C@@H](Cc2ccccc2)C(=O)N[C@H](C(=O)N[C@@H](CC(N)=O)C(=O)NCCCC(=O)N2CCC[C@@H]2C(=O)N[C@@H](CCCN=C(N)N)C(=O)N[C@@H](CCCN=C(N)N)C(N)=O)C(C)C)cc1,,,0.44,1.2,0.53
CC(C)[C@H](NC(=O)[C@H](Cc1ccccc1)NC(=O)[C@@H](Cc1ccc(O)cc1)NC(=O)CC12CC3CC(CC(C3)C1)C2)C(=O)N[C@@H](CC(N)=O)C(=O)N[C@@H](CCCN=C(N)N)C(=O)N1CCC[C@@H]1C(=O)N[C@@H](CCCN=C(N)N)C(=O)N[C@@H](CCCN=C(N)N)C(N)=O,,,4.3,,1.7
CCOc1ccc(C[C@@H](NC(=O)CC23CC4CC(CC(C4)C2)C3)C(=O)N[C@@H](Cc2ccccc2)C(=O)N[C@H](C(=O)N[C@@H](CC(N)=O)C(=O)N[C@@H](CCCN=C(N)N)C(=O)N2CCC[C@@H]2C(=O)N[C@@H](CCCN=C(N)N)C(=O)N[C@@H](CCCN=C(N)N)C(N)=O)C(C)C)cc1,,,1.4,0.5,0.71
CCOc1ccc(C[C@@H](NC(=O)CC(C)(C)C)C(=O)N[C@@H](Cc2ccccc2)C(=O)N[C@H](C(=O)N[C@@H](CC(N)=O)C(=O)NCCCC(=O)N2CCC[C@@H]2C(=O)N[C@@H](CCCN=C(N)N)C(=O)N[C@@H](CCCN=C(N)N)C(N)=O)C(C)C)cc1,,,1.2,0.71,0.83
NCCCC[C@H](NC(=O)[C@H](CC(N)=O)NC(=O)[C@H](CCC(N)=O)NC(=O)[C@H](Cc1ccccc1)NC(=O)[C@@H](Cc1ccc(O)cc1)NC(=O)Cc1ccccc1)C(=O)N1CCC[C@@H]1C(=O)N[C@@H](CCCN=C(N)N)C(N)=O,,,59,0.085,5
COc1ccc(C[C@@H](NC(=O)Cc2ccccc2)C(=O)N[C@@H](Cc2ccccc2)C(=O)N[C@H](C(=O)N[C@@H](CC(N)=O)C(=O)N[C@@H](CCCCN)C(=O)N2CCC[C@@H]2C(=O)N[C@@H](CCCN=C(N)N)C(N)=O)C(C)C)cc1,,,35,0.17,6
CCOc1ccc(C[C@@H](NC(=O)Cc2ccccc2)C(=O)N[C@@H](Cc2ccccc2)C(=O)N[C@H](C(=O)N[C@@H](CC(N)=O)C(=O)N[C@@H](CCCCN)C(=O)N2CCC[C@@H]2C(=O)N[C@@H](CCCN=C(N)N)C(=O)N[C@@H](CCCN=C(N)N)C(N)=O)C(C)C)cc1,,,41,0.24,9.8
CCOc1ccc(C[C@H]2NC(=O)CC3(CCCCC3)SSC[C@H](C(=O)N3CCC[C@H]3C(=O)N[C@@H](CCCN=C(N)N)C(N)=O)NC(=O)[C@@H](CC(N)=O)NC(=O)[C@H](C(C)C)NC(=O)[C@@H](Cc3ccccc3)NC2=O)cc1,,,3.3,0.45,1.5
CCOc1ccc(C[C@H]2NC(=O)CC3(CCCCC3)SSC[C@H](C(=O)N3CCC[C@H]3C(=O)N[C@@H](CCCN=C(N)N)C(=O)NCC(N)=O)NC(=O)[C@@H](CC(N)=O)NC(=O)[C@H](C(C)C)NC(=O)[C@@H](Cc3ccccc3)NC2=O)cc1,,8.22,,0.45,1.1
CCOc1ccc(C[C@@H](NC(=O)CC23CC4CC(CC(C4)C2)C3)C(=O)N[C@@H](Cc2ccccc2)C(=O)N[C@H](C(=O)N[C@@H](CC(N)=O)C(=O)N[C@@H](CCCN=C(N)N)C(=O)N2CCC[C@@H]2C(=O)N[C@@H](CCCN=C(N)N)C(N)=O)C(C)C)cc1,,,2.1,0.66,1.4

# Other lines, results leading:
Kb (Vasopressin V2 receptor) [nM],pA2 (Vasopressin V1 receptor),Ratio [1],Effective dose [2] [nM/kg],Effective dose [3] [nM/kg],SMILES
15.5,8.02,,,,CCOc1ccc(C[C@@H](NC(=O)CC23CC4CC(CC(C4)C2)C3)C(=O)N[C@@H](Cc2ccccc2)C(=O)N[C@H](C(=O)N[C@@H](CC(N)=O)C(=O)N[C@@H](CCCCN)C(=O)N2CCC[C@H]2C(=O)N[C@@H](CCCN=C(N)N)C(N)=O)C(C)C)cc1
~58.9,8.39,,,,CCOc1ccc(C[C@@H](NC(=O)Cc2ccccc2)C(=O)N[C@@H](Cc2ccccc2)C(=O)N[C@H](C(=O)N[C@@H](CC(N)=O)C(=O)N[C@@H](CCCN)C(=O)N2CCC[C@H]2C(=O)N[C@@H](CCCN=C(N)N)C(=O)N[C@@H](CCCN=C(N)N)C(N)=O)C(C)C)cc1
6310,8.4,,,,CCOc1ccc(C[C@@H](NC(=O)CC(C)(C)C)C(=O)N[C@@H](Cc2ccccc2)C(=O)N[C@@H](CCC(N)=O)C(=O)N[C@@H](CC(N)=O)C(=O)N[C@@H](CCCCN)C(=O)N2CCC[C@H]2C(=O)N[C@@H](CCCN=C(N)N)C(N)=O)cc1
,,2.8,0.5,1.4,CCOc1ccc(C[C@@H](NC(=O)CC23CC4CC(CC(C4)C2)C3)C(=O)N[C@@H](Cc2ccccc2)C(=O)N[C@H](C(=O)N[C@@H](CC(N)=O)C(=O)N[C@@H](CCCCN)C(=O)N2CCC[C@@H]2C(=O)N[C@@H](CCCN=C(N)N)C(=O)N[C@@H](CCCN=C(N)N)C(N)=O)C(C)C)cc1
,,2.7,0.26,0.69,CCOc1ccc(C[C@@H](NC(=O)Cc2ccccc2)C(=O)N[C@@H](Cc2ccccc2)C(=O)N[C@H](C(=O)N[C@@H](CC(N)=O)C(=O)NCCCC(=O)N2CCC[C@@H]2C(=O)N[C@@H](CCCN=C(N)N)C(=O)N[C@@H](CCCN=C(N)N)C(N)=O)C(C)C)cc1
,,0.3,3.2,1.1,CCOc1ccc(C[C@@H](NC(=O)CC23CC4CC(CC(C4)C2)C3)C(=O)N[C@@H](Cc2ccccc2)C(=O)N[C@H](C(=O)N[C@@H](CC(N)=O)C(=O)N[C@@H](CCCN)C(=O)N2CCC[C@@H]2C(=O)N[C@@H](CCCN=C(N)N)C(N)=O)C(C)C)cc1
,,,0.16,,CC(C)[C@H](NC(=O)[C@H](Cc1ccccc1)NC(=O)[C@@H](Cc1ccc(O)cc1)NC(=O)Cc1ccccc1)C(=O)N[C@@H](CC(N)=O)C(=O)N[C@@H](CCCN=C(N)N)C(=O)N1CCC[C@@H]1C(=O)N[C@@H](CCCN=C(N)N)C(=O)N[C@@H](CCCN=C(N)N)C(N)=O
,,14,0.29,4,CCOc1ccc(C[C@@H](NC(=O)Cc2ccccc2)C(=O)N[C@@H](Cc2ccccc2)C(=O)N[C@H](C(=O)N[C@@H](CC(N)=O)C(=O)N[C@@H](CCCN)C(=O)N2CCC[C@@H]2C(=O)N[C@@H](CCCN=C(N)N)C(=O)N[C@@H](CCCN=C(N)N)C(N)=O)C(C)C)cc1
,8.62,,,,CC(C)[C@H](NC(=O)[C@H](Cc1ccccc1)NC(=O)[C@@H](Cc1ccc(O)cc1)NC(=O)Cc1ccccc1)C(=O)N[C@@H](CC(N)=O)C(=O)N[C@@H](CCCN=C(N)N)C(=O)N1CCC[C@H]1C(=O)N[C@@H](CCCN=C(N)N)C(=O)N[C@@H](CCCN=C(N)N)C(N)=O
,,0.6,1.6,0.9,CCOc1ccc(C[C@@H](NC(=O)CC23CC4CC(CC(C4)C2)C3)C(=O)N[C@@H](Cc2ccccc2)C(=O)N[C@H](C(=O)N[C@@H](CC(N)=O)C(=O)N[C@@H](CCCN)C(=O)N2CCC[C@@H]2C(=O)N[C@@H](CCCN=C(N)N)C(=O)N[C@@H](CCCN=C(N)N)C(N)=O)C(C)C)cc1
,,> 290,0.083,> 24,COc1ccc(C[C@@H](NC(=O)Cc2ccccc2)C(=O)N[C@@H](Cc2ccccc2)C(=O)N[C@@H](CCC(N)=O)C(=O)N[C@@H](CC(N)=O)C(=O)N[C@@H](CCCCN)C(=O)N2CCC[C@@H]2C(=O)N[C@@H](CCCN=C(N)N)C(N)=O)cc1
